According to patent US10302644B2, “Compositions and methods for treating multiple myeloma” (Dana-Farber Cancer Institute, Inc., priority 2014, dated 2019):

Assays:
[1] = test system: p53 target genes; assay: GEP analysis of patient MM cells before and after lenalidomide treatment; assay type: in vivo, human; conditions: patient MM cells treated with Len; *p < 0.05
Text: Expression data for plasma cells from healthy donors, monoclonal gammopathy of undetermined significance (MGUS), and smoldering myeloma (SMM) were derived from GSE5900 dataset, while expression data from normal plasma cells and 65 MM patients were obtained from GSE4452 dataset, using expression profiling on Affymetrix GeneChip (t test, unpaired, equal variance). […] Data were then normalized and analyzed using D-chip software, seeking statistically significant differences among groups or in p53-target gene expression. Statistical significance was determined by Student t test. The minimal level of significance was P<0.05. […] Gene set enrichment analysis (GSEA) was performed as previously described (2) (GSEA v2.0 at http://www.broad.mit.edu/gsea) using gene set as permutation type, as well as 1,000 permutations and signal to noise as metrics for ranking genes.

[2] = test system: E2F1; assay: E2F1 DNA binding activity (EMSA), protein and mRNA; assay type: cell-based; conditions: MM cells
Experimental: MM cells were harvested and lysed using RIPA-lysis buffer (Boston Bioproducts, Ashland, Mass.) containing 5 mM EDTA, 5 mM NaF, 2 mM Na3VO4, 1 mM PMSF, 5 μg/ml leupeptin, and 5 μg/ml aprotinin. Nuclear proteins were extracted using “Nuclear Extraction Kit” (Affimetrix). After the determination of protein concentration using DC protein assay (Bio-Rad, Hercules, Calif.), β-mercaptoethanol (-ME) was added to the whole-cell lysates to a 2% final concentration. […]
RNA was extracted using Trizol (Invitrogen) and quantified by a Nanodrop spectrophotometer (Labtech). […] After quantification, 2000 ng of RNA was used to synthesize cDNA via the Superscript II First strand synthesis Kit (Invitrogen), according to the manufacturer's instructions. To evaluate the expression levels of TP53RK, BCL2L11, MYC, Bim, E2F1, TP53, IKZF1, IKZF3, RRM1, p18CDKN2C, PSMB5, PSMB7, PSMA3 and GAPDH, quantitative real time PCR (QRT-PCR) was performed using SYBR GREEN PCR Master Mix (Applied Biosystem), after optimization of the primer conditions. cDNAs were diluted 1:100 or 1:1000 and amplified in a 20 μL reaction. […] Real-time quantitative PCR was performed on ABI Prism 7300 Sequence Detection System (Applied Biosystems). Data were analyzed using the delta delta Ct method. […]

[3] = test system: p53; assay: p53 DNA binding activity assay; assay type: cell-based; conditions: MM.1S and H929 cells, 48 h
Experimental: E2F1 DNA binding activity was assessed by electrophoretic mobility shift assay (EMSA) using “EMSA Gel Shift Kit®” from Affimetrix (Santa Clara, Calif.), and p53 DNA binding activity was performed using “p53 Transcription Factor Assay Kit®” from Cayman Chemical (Ann Arbor, Mich.). Experiments were carried out according to manufacturer's protocols.

[4] = test system: hTERT; assay: Comparative hTERT expression analysis in matched MM patient samples (GSE8546); assay type: in vivo, human; conditions: matched samples before and after Len, GSE8546 dataset
[5] = test system: Chk1, ATM, ATR, Chk2; assay: Immunoblotting of DNA damage kinase phosphorylation; assay type: cell-based; conditions: MM.1S cells, 48 h
Experimental: (§1) MM cells were harvested and lysed using RIPA-lysis buffer (Boston Bioproducts, Ashland, Mass.) containing 5 mM EDTA, 5 mM NaF, 2 mM Na3VO4, 1 mM PMSF, 5 μg/ml leupeptin, and 5 μg/ml aprotinin. Nuclear proteins were extracted using “Nuclear Extraction Kit” (Affimetrix). After the determination of protein concentration using DC protein assay (Bio-Rad, Hercules, Calif.), β-mercaptoethanol (-ME) was added to the whole-cell lysates to a 2% final concentration. The whole cell lysates or nuclear extracts were subjected to SDS-PAGE, transferred to nitrocellulose membranes (Bio-Rad, Hercules, Calif.) or polyvinylidene fluoride membranes (Millipore, Billerica, Mass.), and immunoblotted with indicated Abs. Silver staining was carried out using “SilverQuest Staining Kit®” (Invitrogen), according to manufacturer's protocol.

[6] = test system: p53; assay: Immunoblotting of p53 and phosphorylated p53 in MM cells; assay type: cell-based
Experimental: as §1

[7] = test system: LC3-II, Bim, PARP, MDM2, XIAP, cIAP, p-p70S6K; assay: Immunoblotting/qPCR of autophagy and apoptosis proteins in MM cells; assay type: cell-based; conditions: MM.1S cells, 2.5 μM, 48 h
Experimental: as §1
(§2) RNA was extracted using Trizol (Invitrogen) and quantified by a Nanodrop spectrophotometer (Labtech). Specifically, 5×10^6 cells were pelleted, washed with cold PBS, and resuspended in 1 mL Trizol. They were then incubated with 1-Bromo-3-chloropropane (Sigma), washed first with Isopropyl alcohol and then with 75% Ethanol, and resuspended in Nuclease Free-water (Invitrogen). After quantification, 2000 ng of RNA was used to synthesize cDNA via the Superscript II First strand synthesis Kit (Invitrogen), according to the manufacturer's instructions. To evaluate the expression levels of TP53RK, BCL2L11, MYC, Bim, E2F1, TP53, IKZF1, IKZF3, RRM1, p18CDKN2C, PSMB5, PSMB7, PSMA3 and GAPDH, quantitative real time PCR (QRT-PCR) was performed using SYBR GREEN PCR Master Mix (Applied Biosystem), after optimization of the primer conditions. cDNAs were diluted 1:100 or 1:1000 and amplified in a 20 μL reaction. Primers were used at 200 nM or 400 nM concentration. Thermal cycling conditions were: 10 minutes at 95° C., 40 cycles at 95° C. for 15 seconds, followed by 1 minute at 60° C. Real-time quantitative PCR was performed on ABI Prism 7300 Sequence Detection System (Applied Biosystems). Data were analyzed using the delta delta Ct method. GAPDH was used as an invariant control.

[8] = test system: RRM1, p18CDKN2C; assay: RRM1 and p18CDKN2C expression (RT-qPCR, Western blot); assay type: cell-based; conditions: H929 cells
Experimental: as §1, §2

[9] = test system: MM cells; assay: Growth inhibition assay (MTT) / viable cell count (Trypan-blue); assay type: cell-based
Experimental: Cell growth was assessed by measuring 3-(4,5-dimethylthiazol-2-yl)-2,5-diphenyl […] bromide (MTT, Chemicon International, Temecula, Calif.) dye absorbance. Cells were pulsed with 10 μl of 5 mg/ml MTT to each well for the last 4 h of 48 h and/or 72 h cultures, followed by 100 μl isopropanol containing 0.04N HCl. Absorbance was measured at 570/630 nm using a spectrophotometer (Molecular Devices Corp., Sunnyvale Calif.).

[10] = test system: hTERT; assay: hTERT expression and telomerase activity (TeloTAGGG Telomerase PCR ELISA); assay type: cell-based; conditions: MM.1S cells and H929 cells
Experimental: as §1
Telomerase activity in MM.1S and H929 cells was assessed by “TeloTAGGG Telomerase PCR ELISA®” from Roche Applied Science (Mannheim, Germany).

For `Nc1cccc2c1CN(C1CCC(=O)NC1=O)C2=O` (stereo not drawn) [Len, lenalidomide], the BID expression change [1] was “↓”, the CCNA1 expression change [1] was “↓” and the CCNA2 expression change [1] was “↓”. The CCNE2 expression change [1] was “↓”, the CCNG1 expression change [1] was “↓” and the CCR5 expression change [1] was “↓”. The CDC25B expression change [1] was “↑”, the CDKN3 expression change [1] was “↓” and the CTSL2 expression change [1] was “↑”. The CUL1 expression change [1] was “↓”, the DDX3X expression change [1] was “↑*” and the DDX11 expression change [1] was “↓”. The DLEC1 expression change [1] was “↓”, the FGFR3 expression change [1] was “↓” and the HLA-C expression change [1] was “↑”. For the same compound, the ILR6 expression change [1] was “↓”, the ITM2B expression change [1] was “↑*” and the JUND expression change [1] was “↓”. For the same compound, the KRAS expression change [1] was “↑*”, the LAPTM5 expression change [1] was “↑” and the MAP2K6 expression change [1] was “↓*”. The MKI67 expression change [1] was “↓”, the MSX1 expression change [1] was “↓” and the MYBL2 expression change [1] was “↓*”. For the same compound, the MYC expression change [1] was “↓”, the RAD21 expression change [1] was “↑” and the RAD51C expression change [1] was “↓”. For the same compound, the RHOH expression change [1] was “↑*”, the RRM1 expression change [1] was “↓*” and the RRM2 expression change [1] was “↓*”. The SEC61A1 expression change [1] was “↑*”, the SMC4 expression change [1] was “↑” and the STAT3 expression change [1] was “↑”. For the same compound, the TEAD3 expression change [1] was “↓”, the UBC expression change [1] was “↑*” and the XPC expression change [1] was “↑”. For the same compound, the ZNF330 expression change [1] was “↓”, the E2F1 [2] was “increases” and the “p53 activity (p53 DNA binding)” value [3] was “block”. The “hTERT levels in MM patient samples after treatment” value [4] was “lower”, the “phosphorylation of ATM, ATR or Chk2” value [5] was “not” and the “phosphorylation of Chk1” value [5] was “inhibited”. For the same compound, the “p53 phosphorylation at Ser20 and Ser37” value ([6]; MM.1S cells, 2.5 μM, 48 h) was “no change”, the “phosphorylated (p-Ser15)-p53 and p53 levels” value ([6]; MM.1S cells, 2.5 μM, 48 h) was “downregulated” and the “Nut3-induced upregulation of p-p53 and p53” value ([6]; MM.1S cells, Len or Pom 2.5 μM with Nutlin-3a 0.5 μM, 48 h) was “inhibited”. The p-p53/p53 downregulation ([6]; nuclear extracts from MM.1S and H929 cell lines, patient MM cells) was “further confirmed”, the LC3-II level [7] was “upregulation” and the RRM1 expression [8] was “downregulate”. The p18CDKN2C expression [8] was “upregulate”, the “drug-triggered growth inhibition in kinase-dead D163A TP53RK transfectants” value ([9]; H929 cells, 48 h) was “abrogated” and the “sensitivity of MM cell lines to drug” value ([9]; MM.1S and H929 cells with wt-p53 versus cell lines with mutant p53) was “more sensitive”. The “drug-triggered cell death after CRBN knock-down” value ([9]; OPM2 cells (mutant p53) and H929 cells (wt-p53)) was “only partially abrogates”, the hTERT expression [10] was “significantly inhibited” and the “telomerase (hTERT) activity” value [10] was “significantly inhibited”.
